Assay results published in patent US8841233B2, “Herbicidal compositions comprising 4-amino-3-chloro-5-fluoro-6-(4-chloro-2-fluoro-3-methoxyphenyl) pyridine-2-carboxylic acid or a derivative thereof and 4-hydroxyphenyl-pyruvate dioxygenase (HPPD) inhibitors” (Dow Agrosciences LLC, priority 2012, dated 2014).

Tests used:
[1] = tested on: SETVI; experiment: Pre-emergence soil-applied weed control, greenhouse (Example III); assay type: in vivo, Setaria viridis (L.) Beauv.
From the text: (§1) Evaluation of Pre-emergence Soil-Applied Herbicidal Mixtures for Weed Control
(§2) Seeds or nutlets of the desired test plant species were planted in a soil matrix prepared by mixing a loam soil (32 percent silt, 23 percent clay, and 45 percent sand, with a pH of about 6.5 and an organic matter content of about 1.9 percent) and calcareous grit in an 80 to 20 ratio. The soil matrix was contained in plastic pots with a volume of 1 quart and a surface area of 83.6 square centimeters (cm^2).
(§3) Treatments consisted of the benzyl ester of 4-amino-3-chloro-5-fluoro-6-(4-chloro-2-fluoro-3-methoxy-phenyl)pyridine-2-carboxylic acid (compound A) formulated as an SC (suspension concentrate) and various herbicidal components alone and in combination. Forms of compound A were applied on an acid equivalent basis.
(§4) Other herbicidal components were applied on an acid equivalent or active ingredient basis and included the 4-hydroxyphenyl pyruvate dioxygenase (HPPD)-inhibiting herbicide, isoxaflutole, formulated as Balance Pro®.
(§5) Treatment requirements were calculated based upon the rates being tested, the concentration of active ingredient or acid equivalent in the formulation, and a 12 mL application volume at a rate of 187 L/ha.
(§6) For treatments comprised of formulated compounds, measured amounts of compounds were placed individually in 25 mL glass vials and diluted in a volume of 1.25% (v/v) Agri-Dex® crop oil concentrate (COC) to obtain 12× stock solutions. […] Application solutions were prepared by adding an appropriate amount of each stock solution (e.g., 1 mL) and diluted to the appropriate final concentrations with the addition of 10 mL of an aqueous mixture of 1.25% (v/v) COC so that the final spray solutions contained 1.25% (v/v) COC.
(§7) All stock solutions and applications solutions were visually inspected for compound compatibility prior to application. Spray solutions were applied to the soil with an overhead Mandel track sprayer equipped with a 8002E nozzles calibrated to deliver 187 L/ha over an application area of 0.503 m^2 at a spray height of 18 inches (46 cm) above average pot height. Control pots were sprayed in the same manner with the solvent blank.
(§8) The treated and control pots were placed in a greenhouse and top watered as needed. When required to ensure good germination and healthy plants, a fungicide treatment and/or other chemical or physical treatment was applied. […] After approximately 4 weeks, the condition of the test plants as compared with that of the untreated plants was determined visually and scored on a scale of 0 to 100 percent where 0 corresponds to no injury or growth inhibition and 100 corresponds to complete kill. […]

[2] = tested on: IPOHE; experiment: as above; assay type: in vivo, Ipomoea hederacea (L.) Jacq.
From the text: as §1, §2, §3, §4, §5, §6, §7, §8

[3] = tested on: ECHCO; experiment: In-water applied weed control, transplanted paddy rice, greenhouse (Example II); assay type: in vivo, Echinochloa colona (L.) Link
Experimental: Evaluation of in-Water Applied Herbicidal Mixtures for Weed Control in Transplanted Paddy Rice
Weed seeds or nutlets of the desired test plant species were planted in puddled soil (mud) prepared by mixing a shredded, non-sterilized mineral soil (50.5 percent silt, 25.5 percent clay, and 24 percent sand, with a pH of about 7.6 and an organic matter content of about 2.9 percent) and water at a 1:1 volumetric ratio. The prepared mud was dispensed in 365 mL aliquots into 16-ounce (oz.) non-perforated plastic pots with a surface area of 86.59 square centimeters (cm^2) leaving a headspace of 3 centimeters (cm) in each pot. Mud was allowed to dry overnight prior to planting or transplanting. Rice seeds were planted in Sun Gro MetroMix® 306 planting mixture, which typically has a pH of 6.0 to 6.8 and an organic matter content of about 30 percent, in plastic plug trays. Seedlings at the second or third leaf stage of growth were transplanted into 840 mL of mud contained in 32-oz. non-perforated plastic pots with a surface area of 86.59 cm^2 4 days prior to herbicide application. The paddy was created by filling the headspace of the pots with 2.5 to 3 cm of water. When required to ensure good germination and healthy plants, a fungicide treatment and/or other chemical or physical treatment was applied. The plants were grown for 4-22 days in a greenhouse with an approximate 14 h photoperiod which was maintained at about 29′C during the day and 26° C. during the night. Nutrients were added as Osmocote® (19:6:12, N:P:K+ minor nutrients) at 2 g per 16-oz. pot and 4 g per 32-oz. pot. Water was added on a regular basis to maintain the paddy flood, and supplemental lighting was provided with overhead metal halide 1000-Watt lamps as necessary. The plants were employed for testing when they reached the first through fourth true leaf stage.
as §3, with “acid or esters” for “benzyl ester”, “A) each” for “A)”, “basis. […]” for “basis.”
Treatment requirements for each compound or herbicidal component were calculated based upon the rates being tested, the concentration of active ingredient or acid equivalent in the formulation, an application volume of 2 mL per component per pot, and an application area of 86.59 cm^2 per pot.
For formulated compounds, a measured amount was placed in an individual 100 or 200 mL glass vial and was dissolved in a volume of 1.25% (v/v) Agri-Dex® crop oil concentrate to obtain application solutions. […]

| SMILES | Visual Weed Control (%) - 32 DAA SETVI Obs ([1]; 16 gae/ha) [%] | Visual Weed Control (%) - 32 DAA SETVI Obs ([1]; 32 gae/ha) [%] | Visual Weed Control (%) - 32 DAA IPOHE Obs ([2]; 8 gae/ha) [%] | Visual Weed Control (%) - 32 DAA IPOHE Obs ([2]; 16 gae/ha) [%] | Visual Weed Control (%) - 32 DAA IPOHE Obs ([2]; 32 gae/ha) [%] | Visual Weed Control (%) - 21 DAA ECHCO Obs ([3]; 8.75 gae/ha) [%] | Visual Weed Control (%) - 21 DAA ECHCO Obs ([3]; 17.5 gae/ha) [%] |
| --- | --- | --- | --- | --- | --- | --- | --- |
| COc1c(Cl)ccc(-c2nc(C(=O)OCc3ccccc3)c(Cl)c(N)c2F)c1F [Compound A Benzyl Ester, benzyl ester of 4-amino-3-chloro-5-fluoro-6-(4-chloro-2-fluoro-3-methoxy-phenyl)pyridine-2-carboxylic acid] | 0 | 13 | 5 | 10 | 10 | – | – |
| COc1c(Cl)ccc(-c2nc(C(=O)O)c(Cl)c(N)c2F)c1F [Compound A Acid, 4-amino-3-chloro-6-(4-chloro-2-fluoro-3-methoxyphenyl)-5-fluoropyridine-2-carboxylic acid] | – | – | – | – | – | 0 | 20 |
